Where two headings read alike, the source gives them in different places.
Target: T1, cAMP-phosphodiesterase (PDE)
T1 construct: gene PDE1A; enzyme of commercial Abcam colorimetric PDE kit
Test: colorimetric PDE activity kit ab139460, plate reader […] nm
Format: biochemical
Details: two-range dilution, measuring error 10%, isoenzyme not told, read-out: IC50 **^1

IC50 (control from kit)	IC50	Structure (SMILES)
5 µM		CC(C)Cn1c(=O)n(C)c(=O)c2[nH]cnc21 [compound 11, 3-isobutyl-1-methylxanthine]
	5 µM	OCCN(CCO)c1nc(N2CCCCC2)c2nc(N(CCO)CCO)nc(N3CCCCC3)c2n1 [10 (D10), 2,6-bis-diethanolamino-4,8-dipiperidinopyrimido(5,4-d)-pyrimidine]
